Results on 1 substance are retold here after patent US20110117012A1, “RADIOLABELED GALLIUM COMPLEXES, METHODS FOR SYNTHESIS AND USE FOR PET IMAGING OF EGFR EXPRESSION IN MALIGNANT TUMORS” (priority 2003, published 2011).

Data set [1] deals with U343 cells. The data set is described as follows: Cellular internalization by acid wash, U343 cells. Type of data set: cell-based, human. The source says:
(§1) The human squamous carcinoma cell line A431 (ATCC, CLR 1555, Rocksville, Md., USA) and the malignant glioma cell line U343MGaC12:6 (Westermark B, Magnusson A, Heldin C H. Effect of epidermal growth factor on membrane motility and cell locomotion in cultures of human clonal glioma cells. J Neurosci Res. 1982; 8(2-3): 491-507) (from now on denoted U343) were used in all cell experiments. This A431 cell line is reported to express approximately 2×10^6 EGFR per cell, and the U343 cell line express approximately 5.5×10^5 EGFR per cell. […]
(§2) Instead of trypsinising the cells, treatment with 0.5 ml ice-cold 0.1 M glycin-HCl buffer, pH 2.5 for 6 min at 0° C. was used to extract the membrane bound fraction of the conjugate. […] The remaining radioactivity, considered to be internalized radioactivity, was collected by treatment with 0.5 ml 1 M NaOH solution at 37° C. for about 60 min. […] The collected fractions were measured in an automated gamma counter.
(§3) In this study, the degree of internalization was estimated by acid wash. Radioactivity, which was removed from cells by an acidic buffer was considered as membrane-bound, and the rest as internalized. […] More than 50% of the radioactivity was internalized at 30 min after the start of incubation in the case of glioma U343 cells.

The test system of data set [2] is A431 tumor xenografts. The data set is described as follows: MicroPET imaging of tumor-bearing mice. Type of data set: in vivo. Here is the method:
(§4) The in vivo studies were carried out in adult female Balb/c nu/nu mice (21-25 g) (Möllegård, Denmark) with tumor xenografts. All animals were handled according to the guidelines by the Swedish Animal Welfare Agency, and the experiments were approved by the local Ethics Committee for Animal Research. The mice were injected subcutaneously with A431 tumor cells (approximately 7 million cells per tumor in 100 μl cell culture medium) in both front legs. The tumors were allowed to grow for 12-13 days before the experiments were performed, and had then reached a weight of 0.1-0.8 g.
Imaging was performed on a microPET R4 scanner (Concorde Microsystems, Inc.), with a computer-controlled bed and 10 cm transaxial and 8 cm axial field of view (FOV). […] After completion of the study the animals were decapitated under anesthesia and blood, liver, and kidney samples were collected for radioactivity measurements.
Scatter correction, random counts and dead time correction were all incorporated into the reconstruction algorithm. Radiation attenuation in each animal was measured with two rotating rod sources containing ^68 Ge/^68Ga before tracer injection and the images were corrected for radiation attenuation. […] Pharmacokinetic curves, representing the radioactivity concentrations (percentage of injected dose per gram of tissue), versus time after injection were determined accordingly. […]

For data set [3], the system named is A431 tumor xenografts. Further details: species or system Balb/c nu/nu mice. Conditions: mouse, in vivo, iv, 0.5 h. Here is the method:
as §4
In order to estimate an influence of amount injected conjugate on uptake in tumors and normal tissues, a biodistribution study was performed. […] The mice were anesthetised by an intraperitoneal injection of a mixture of Rompun (1 mg/ml) and Ketalar (10 mg/ml), 0.2 ml per 10 g of animal weight, and killed by heart puncture. In addition to the tumors, blood, heart, pancreas, spleen, stomach, liver, kidneys, lungs, small and large intestine, muscle, bone and salivary gland were collected, weighed and measured in an automated gamma counter. The tails were also measured for radioactive content, in order to determine the accuracy of the injections. Organ values were calculated as percent of injected activity per g of organ (% IA/g).

Data set [4] has as its system A431 cells. The data set is described as follows: Cellular internalization by acid wash, A431 cells. Type of data set: cell-based, human.
Source text: as §1, §2, §3

Data set [5] is classed as physicochemical. As for the experimental part:
Analytical liquid chromatography (LC) was performed using a HPLC system from Beckman (Fullerton, Calif., USA) consisting of a 126 pump, a 166 UV detector and a radiation detector coupled in series. Data acquisition and handling was performed using the Beckman System Gold Nouveau Chromatography Software Package. The column used was a Vydac RP 300 Å HPLC column (Vydac, USA) with the dimensions 150 mm×4.6 mm, 5 μm particle size. The applied gradient elution had the following parameters: A=10 mM TFA; B=70% acetonitrile (MeCN), 30% H2O, 10 mM TFA with UV-detection at 220 nm; flow was 1.2 mL/min; 0-2 min isocratic 20% B, 20-90% B linear gradient 8 min, 90-20% B linear gradient 2 min The quantity of ^68Ga-DOTA-hEGF and radio-impurities retained on the column could be obtained by measuring the activity of the sample injected on the column and the fractions collected from the outlet with a crystal scintillation counter. The overall loss on the system was 10%. The measured activity of the fractions of ^68Ga-DOTA-hEGF and hydrophilic radio-impurities were in agreement with the respective values obtained from the HPLC chromatograms. […]
The microwave-accelerated labeling of the conjugates (Scheme 1) was performed using a non-concentrated or a pre-concentrated generator ^68Ga-eluate. […] Pre-concentration of eluate allowed to obtain specific radioactivity of 28 MBq/nmol. […]

In data set [6] the test system is U343 cells. The data set is described as follows: Cellular retention of radioactivity after interrupted incubation, U343 cells. It counts as cell-based, human. Particulars: 4 hours after interrupted incubation.
Source text: as §1, with “cell. The cells were cultured in Ham's F10 medium (Biochrom Kg), supplemented with 10% fetal calf serum (Sigma), L-glutamine (2 mM) and PEST (penicillin 100 IU/ml and streptomycin 100 μg/ml) both from Biochrom Kg. During cell culture and cell experiments (unless otherwise stated) cells were grown at 37° C. in incubators with humidified air, equilibrated with 5% CO2.” for “cell.”
(§5) After the incubation, the cells were washed thoroughly to eliminate unbound conjugate, and the incubation was then continued in fresh cell culture medium. After 0.5-4 h, the cells were trypsinized, counted and measured for radioactivity, as described above.
(§6) An initial drop of radioactivity, which was most likely due to dissociation of membrane-bound conjugates, was followed by a relatively constant amount of cell-bound ^68Ga.

For data set [7], the system named is A431 cells. Description: Cellular retention of radioactivity after interrupted incubation, A431 cells. It counts as cell-based, human. Conditions: 4 hours after interrupted incubation.
Source text: as §1, with “cell. The cells were cultured in Ham's F10 medium (Biochrom Kg), supplemented with 10% fetal calf serum (Sigma), L-glutamine (2 mM) and PEST (penicillin 100 IU/ml and streptomycin 100 μg/ml) both from Biochrom Kg. During cell culture and cell experiments (unless otherwise stated) cells were grown at 37° C. in incubators with humidified air, equilibrated with 5% CO2.” for “cell.”
as §5, §6

Entries after “also recorded” stand apart in the source; their conditions may differ. Read-outs that look alike come from different tables or passages of the source.

“^68Ga-DOTA-EGF: recombinant human epidermal growth factor conjugated to the chelator DOTA (one to three DOTA) and labeled with 68Ga; PET tracer”: in data set [1] (30 min after the start of incubation), the radioactivity internalized result is given as “More than 50%”. Further, the internalization rate entry in data set [1] (acid wash, compared to A431) is given as “faster”; in data set [4], “rapid process”. Moreover, the “organ distribution by microPET” value in data set [2] (0.16 nmol injected, liver, kidneys, tumours, pharmacokinetic curves) is “Prominent uptake was observed in the liver and kidneys; also recorded: rapid distribution”. The “tumor visualization by microPET” value in data set [2] (30 min after administration of 2.0 MBq, right and left leg tumors) is on record as “visible with clear contrast”. In addition, the “radioactivity remaining in the circulation (blood)” value in data set [3] (0.016 nmol per animal) and in data set [3] (0.16 nmol per animal) was “less than 1 % IA/g” each time. Also, the “uptake in the A431 tumour xenograft” value worked out at 1.51±0.16 % IA/g in data set [3] (0.016 nmol per animal) and 2.69±0.29 % IA/g in data set [3] (0.16 nmol per animal). Also, the “stability in PBS” value in data set [5] is recorded as “stable”. The “cell-associated radioactivity (retention)” value in data set [6] and in data set [7] was “more than 70%” throughout.
